These results are taken from patent publication US12485121B2, “Antiviral agents for the treatment and prevention of HIV infection” (Pharmasyntez, Joint Stock Company, priority 2020, dated 2025).

The assay concerns HIV-1 subtype A strain 12RU 69831. The experiment in a line: Inhibition of HIV-1 reproduction / protection of infected MT-4 cells (living cell concentration, p24 production). It counts as cell-based. The note with it: Human immunodeficiency virus 1, MT4, MT-4 cells infected with HIV-1 at a constant virus dose of 300 CCID50; read-out: Activity against HIV-1 12RU 69831 strain (subtype A). The method in brief:
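MT-4 cells infected with HIV-1 subtype A 12RU 69831 at a constant 300 CCID50 dose and treated with various compound concentrations. Protection measured as change in living cell concentration; viral replication measured as p24 production.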
Turning to `Cc1cc(C#N)cc(C)c1Oc1nc(Nc2ccc(C#N)cc2)nc2c1CN(Cc1ccncc1)CC2` [BB0274137, 4-((2-((4-Cyanophenyl)amino)-6-(pyridine-4-ylmethyl)-5,6,7,8-tetrahydropyrido[4,3-d]pyrimidine-4-yl)oxy)-3,5-dimethylbenzonitrile], the IC50 is 0.00799 µM.
The result for `Cc1cc(C#N)cc(C)c1Oc1nc(Nc2ccc(C#N)cc2)nc2c1CN(Cc1cccnc1)CC2` [BB0274138, 4-((2-((4-Cyanophenyl)amino)-6-(pyridine-3-ylmethyl)-5,6,7,8-tetrahydropyrido[4,3-d]pyrimidine-4-yl)oxy)-3,5-dimethylbenzonitrile] reads 0.00676 µM; that for `Cc1cc(C#N)cc(C)c1Oc1nc(Nc2ccc(C#N)cc2)nc2c1CN(Cc1ccccc1O)CC2` [BB0274140, 4-((2-((4-Cyanophenyl)amino)-6-(2-hydroxybenzyl)-5,6,7,8-tetrahydropyrido[4,3-d]pyrimidine-4-yl)oxy)-3,5-dimethylbenzonitrile], 27.8 µM.
As for `C#CCOc1ccccc1CN1CCc2nc(Nc3ccc(C#N)cc3)nc(Oc3c(C)cc(C#N)cc3C)c2C1` [BB0274141, 4-((2-((4-Cyanophenyl)amino)-6-(2-(prop-2-in-1-yloxy)benzyl)-5,6,7,8-tetrahydropyrido[4,3-d]pyrimidine-4-yl)oxy)-3,5-dimethylbenzonitrile], the figure is 174 µM.
For the compound `Cc1cc(C#N)cc(C)c1Oc1nc(Nc2ccc(C#N)cc2)nc2c1CCN(CCC(=O)O)CC2` [BB0274143, 3-(4-(4-Cyano-2,6-dimethylphenoxy)-2-((4-cyanophenyl)amino)-8,9-dihydro-5H-pyrimido[4,5-d]azepine-7(6H)-yl)propanoic acid], the IC50 came to 0.71 µM.
The result for `C=CCN1CCc2nc(Nc3ccc(C#N)cc3)nc(Oc3c(C)cc(C#N)cc3C)c2CC1` [BB0274144, 4-((7-Allyl-2-((4-cyanophenyl)amino)-6,7,8,9-tetrahydro-5H-pyrimido[4,5-d]azepine-4-yl)oxy)-3,5-dimethylbenzonitrile] reads 1.63 µM; that for `CC(=O)N1CCc2nc(Nc3ccc(C#N)cc3)nc(Oc3c(C)cc(C#N)cc3C)c2CC1` [BB0274145, 4-((7-Acetyl-2-((4-cyanophenyl)amino)-6,7,8,9-tetrahydro-5H-pyrimido[4,5-d]azepine-4-yl)oxy)-3,5-dimethylbenzonitrile], 1.69 µM.
As for `Cc1cc(C#N)cc(C)c1Oc1nc(Nc2ccc(C#N)cc2)nc2c1CCN(C(=O)Cn1ccnc1)CC2` [BB0274227, 4-((7-(2-(1H-Imidazole-1-yl)acetyl)-2-((4-cyanophenyl)amino)-6,7,8,9-tetrahydro-5H-pyrimido[4,5-d]azepine-4-yl)oxy)-3,5-dimethylbenzonitrile], the figure is 0.0125 µM; as for `Cc1cc(C#N)cc(C)c1Oc1nc(Nc2ccc(C#N)cc2)nc2c1CCN(C(=O)Cn1ccnc1C)CC2` [BB0274236, 4-((2-((4-Cyanophenyl)amino)-7-(2-(methyl-1H-imidazole-1-yl)acetyl)-6,7,8,9-tetrahydro-5H-pyrimido[4,5-d]azepine-4-yl)oxy)-3,5-dimethylbenzonitrile], 0.0488 µM.
As for `Cc1cc(C#N)cc(C)c1Oc1nc(Nc2ccc(C#N)cc2)nc2c1CN(S(N)(=O)=O)CC2` [BB0274239, 4-(4-Cyano-2,6-dimethylphenoxy)-2-[(4-cyanophenyl)amino]-5H,6H,7H,8H-pyrido[4,3-d]pyrimidine-6-sulfonamide], the figure is 359 µM.
With `COC(=O)C(=O)N1CCc2nc(Nc3ccc(C#N)cc3)nc(Oc3c(C)cc(C=O)cc3C)c2CC1` [BB0274312, Methyl 2-{2-[(4-cyanophenyl)amino]-4-(4-formyl-2,6-dimethylphenoxy)-5H,6H,7H,8H,9H-pyrimido [4,5-d]azepine-7-yl}-2-oxoacetate], the IC50 is 34.8 µM.
The result for `Cc1cc(C#N)cc(C)c1OC1=NC(Nc2ccc(C#N)cc2)=NC2CCN(C(=O)NC3CCOCC3)CC12` (stereo not shown) [BB0274337, 4-(4-Cyano-2,6-dimethylphenoxy)-2-[(4-cyanophenyl)amino]-N-(oxan-4-yl)-4aH,5H,6H,7H,8H,8aH-pyrido [4,3-d]pyrimidine-6-carboxamide] reads 205 µM.
As for `Cc1cc(C#N)cc(C)c1Oc1nc(Nc2ccc(C#N)cc2)nc2c1CN(C(=O)C(N)Cc1cnc[nH]1)CC2` (stereo not shown) [BB0275622, 4-({6-[2-Amino-3-(1H-imidazole-5-yl)propanoyl]-2-[(4-cyanophenyl)amino]-5H,6H,7H,8H-pyrido[4,3-d]pyrimidine-4-yl}oxy)-3,5-dimethylbenzonitrile], the figure is 0.032 µM.
